What was measured:
[1] = Octanol-water partition coefficient (logD); format: physicochemical; conditions: PBS pH 7.4 / octanol, 25 °C; read-out: Log D (PBS pH 7.4/ octanol)
Experimental: Octanol and phosphate buffered saline (PBS, 137 mM NaCl, 2.7 mM KCl, 10 mM Na2HPO4, 2.0 mM KH2PO4, pH 7.4) were saturated with each other prior to the experiment. Stock solutions of all test compounds (100 mM) were prepared in DMSO, stored at - 20 °C and diluted with the saturated PBS to 100 µM prior to the experiment. The experiment was performed in duplicates in 2 mL HPLC-vials. 300 µL of the test compound solution (100 µM) was overlayered with 300 µL saturated octanol. The emulsions were vortexed for 1 min and shaken for 1 h at 180 rpm and 25 °C. After phase separation, the aqueous phases and the initial 100 µM compound solution were quantified on HPLC.

LASV Ba366 = assay: microbe, parasite or virus in culture; format: cell-based, Lassa virus; conditions: Mammarenavirus lassaense, Vero, 72 h
hDHODH = hDHODH (Homo sapiens, UniProt Q02127); assay: hDHODH enzyme assay (DCPIP absorption, initial velocities); format: biochemical; conditions: for IC50: hDHODH inhibition, HsDHODH29-396 35 nM, 25 °C
Experimental: Expression and purification of the enzyme was carried out following the protocol of DAS et al. (SAR-Based Optimization of a 4-Quinoline Carboxylic Acid Analogue with Potent Antiviral Activity. ACS Med. Chem. Lett. 2013, 4, 517-521). The prepared enzyme stock solution (325 µM) was thawed to 0 °C and carefully diluted to 87.5 nM with ice-cooled Tris-HCl buffer (50 mM Tris-HCl, 0.1 % Triton X-100, pH 8.0)). Stock solutions of all test compounds (100 mM), L-DHO (250 mM) and CoQ1 (250 mM) were prepared in DMSO, stored at -20 °C and thawed to room temperature before use. The reaction was performed in triplicates in a 96 well plate with total volumes of 200 µL containing L-dihydroorotate (L-DHO; 0.10 mM), coenzyme Q1 (CoQ1; 25 µM), 2,6-dichlorophenolindophenol (DCPIP; 60 µM), HsDHODH29-396 (35 nM) and the test compound (varying concentrations) in Tris-HCl buffer.
The compound stock solutions were diluted in Tris-HCl buffer to give nine different concentrations and each sample was treated with a freshly prepared substrate mixture containing L-DHO, CoQ1 and DCPIP. By simultaneous addition of 80 µL ice-cooled enzyme solution ([…]) per well and immediate mixing by thorough pipetting, the reaction was started. The absorption of the mixture was monitored using a spectrophotometer (Berthold Technologies TriStar2S LB942 Multimode Reader, ICE software) with one data point per 10 seconds at an excitation wavelength of 600 nm and a temperature of 25 °C. During the first 200 s from enzyme addition, linear initial enzyme velocites were recorded, from which the IC50 values were calculated by non-linear fitting (Origin software) to the following equation: v = (V0)/(1 + (c)/(IC50)) [formula] wherein • v is the determined initial, linear enzyme velocity, • V0 is the calculated enzyme velocity without test compound and • c is the concentration of added test compound.

S9 metabolism assay = format: in vitro ADME, rat; conditions: for amide cleavage: hydrolysis study in S9 extract of rat liver, identified via LC-MS; for Metabolic stability [% remaining at 1h in rat S9 fraction]: test compound 100 µM, 37 °C
Experimental: Stock solutions of all test compounds (100 mM) were prepared in DMSO, stored at-20 °C and diluted in PB to 600 µM prior to the assay. Rat liver S9 fractions (SigmaAldrich, Lot # SLCC9026 and # SLCB2232) were combined, aliquoted (200 µL), stored at -80 °C and thawed to 0 °C before use. The reaction was performed in triplicates in eppendorf tubes with total volumes of 300 µL containing MgCl2 (5 mM), NADPH (5 mM), rat S9 fraction (1 mg) and the test compound (100 µM) in phosphate buffer (38.5 mM Na2HPO4, 11.5 mM KH2PO4, pH 7.3). 7-Ethoxycoumarin was assessed as reference inhibitor and a control without inhibitor but an equivalent amount of buffer instead was run. The ice cooled S9 fraction was added to a solution of MgCl2 and NADPH in PB and the resulting mixture was preincubated for 10 minutes at 37 °C in a shaker. Subsequently the reaction was started by addition of the test compound (50 µL), followed by threefold pipetting. After 0 h, 1 h and 3 h, samples of 50 µL were taken from the reaction, mixed with 150 µL ice-cooled methanol and centrifuged at 14000 rpm and 4 °C for 15 minutes. The supernatant was filtered with a syringe fiter, immediately quantified on HPLC and stored at -20 °C until LC/MS analysis.

[2] = Membrane permeability (PAMPA assay); format: in vitro ADME; conditions: PBS pH 7.4, 5 h, 25 °C
Experimental: Stock solutions of all test compounds (100 mM) were prepared in DMSO, stored at -20 °C and diluted with phosphate buffered saline (PBS, 137 mM NaCl, 2.7 mM KCl, 10 mM Na2HPO4, 2.0 mM KH2PO4, pH 7.4) to 200 µM prior to the experiment. The assay was performed in triplicates in a 96 well Corning Gentest Precoated PAMPA Plate System, which was stored at -20 °C and thawed to room temperature for 1 h prior to the assay. Wells of the donor plate were filled with 300 µL of the compound solutions (200 µM) and 200 µL PBS were added to the wells of the receiver plate. Two controls without inhibitor but an equivalent amount of buffer instead was run. Bubble-free assembling of the two plates was followed by 5 h incubation at 25 °C. Finally, the plates were carefully separated from each other. 150 µL of each well of both plates were transferred to black 96-well FluoroNunc™ plates and quantified on fluorescence spectrophotometer (Berthold Technologies TriStar^2S LB942 Multimode Reader, ICE software). Membrane Permeabilities were calculated using the following equation: Ppampa = (−ln(1−(cacc (t))/(ceq)))/(Aperm ⋅((1)/(Vdon)+(1)/(Vacc))⋅t) [formula] wherein • Cacc(t) is the compound concentration in acceptor well at time t, • Aperm is the area of the membrane filter (0.3 cm^2), • Vdon is the donor well volume (0.3 mL), • Vacc is the acceptor well volume (0.2 mL) and • Ceq is the equilibrium concentration with ceq = (cdon (t)⋅Vdon + cacc (t)⋅Vacc)/(Vdon + Vacc) [formula] where cdon(t) is the compound concentration in donor well at time t.

CCHFV Afg 09-2990 = assay: microbe, parasite or virus in culture; format: cell-based, Crimean-Congo hemorrhagic fever orthonairovirus; conditions: Orthonairovirus haemorrhagiae, Vero, 72 h
[3] = system: human PBMCs (CD4/CD8 T cells); assay: Lymphocyte inhibition, Cytostim-stimulated PBMCs, flow cytometry; format: cell-based; conditions: T-cell stimulation by Cytostim, read-out: IC50 for CD4 and CD8 replication
Experimental: Lymphocyte inhibition was determined by using human PBMCs (peripheral blood mononuclear cells) as cell culture. The inhibitor compound was added at 8 different concentrations with each determination in triplicate and one control without inhibitor. T-cell stimulation was done by Cytostim, a reagent that binds T-cell receptors to MHC molecules of the antigen-presenting cells in an antibody-based manner and enables T-cell stimulation. Quantification was achieved by a flow cytometry-based method (Facs analysis) with staining of PBMCs with eFluor670 (eBioscience(TM)). The PBMCs are assigned to their populations (CD4/CD8 T cells) by use of other markers.

EBOV Mayinga = assay: microbe, parasite or virus in culture; format: cell-based, Ebola virus; conditions: Zaire ebolavirus, Vero, 96 h
in vitro = conditions: African green monkey

Chain of hDHODH (Q02127 29-395 limits assumed): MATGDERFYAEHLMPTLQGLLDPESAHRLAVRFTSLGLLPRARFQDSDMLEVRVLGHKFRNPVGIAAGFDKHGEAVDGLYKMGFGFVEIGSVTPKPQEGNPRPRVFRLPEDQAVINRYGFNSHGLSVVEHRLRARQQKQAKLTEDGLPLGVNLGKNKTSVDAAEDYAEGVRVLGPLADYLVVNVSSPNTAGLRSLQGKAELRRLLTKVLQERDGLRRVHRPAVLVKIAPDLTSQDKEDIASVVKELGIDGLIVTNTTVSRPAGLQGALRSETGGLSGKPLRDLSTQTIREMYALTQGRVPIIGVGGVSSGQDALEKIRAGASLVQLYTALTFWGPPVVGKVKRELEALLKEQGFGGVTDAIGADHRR

Compound	logD [1]	IC50 (LASV Ba366) [nM]	IC50 (hDHODH) [nM]	amide cleavage (S9 metabolism assay)	Metabolic stability [% remaining at 1h in rat S9 fraction] (S9 metabolism assay) [%]	Papp at 5 h, 200 µM [2] [×10⁻⁶ cm/s]	percentual inhibition of hDHODH (hDHODH; at a 1 µM concentration) [%]	IC50 (CCHFV Afg 09-2990) [nM]	IC50 [3] [nM]	IC50 (EBOV Mayinga) [nM]	CC50 (in vitro) [nM]
O=C(NCc1cc2cccc(C(F)(F)F)c2o1)Nc1ccccc1C(=O)O [Example 2, 2-(3-((7-(trifluoromethyl)benzofuran-2-yl)methyl)ureido)benzoic acid]	1.96	1000	90.7	no amide cleavage	92.0	3.23					
O=C(Nc1cnccc1C(=O)O)Nc1cccc2ccccc12 [Example 18]	0.32		81	did not show amide cleavage	89.6	6.84	91				
CCC(C)c1ccccc1OCCCC(=O)Nc1ccccc1C(=O)O (centres unmarked) [reference compound]				showed a cleavage of the amide bond							
CCC(C)(C)c1cccc2cc(CNC(=O)Nc3ccccc3C(=O)O)oc12 [Example 1]	2.98	35	9.2	no amide cleavage	68.2	5.74		100	~150	14	> 1000
CCC(=O)Nc1ccc(C#Cc2ccc(N3CCOCC3)cc2)cc1C(=O)O [Example 4]		600	50								
O=C(NCc1cc2cc(F)cc(C(F)(F)F)c2o1)Nc1ccccc1C(=O)O [Example 3]			~230								
